In series [1] the test system is HBV viral load, AD38 cells. Kind of series: Activity of test compounds on viral production from AD38 cells (viral load by quantitative PCR of the core sequence in supernatant). It counts as cell-based, Hepatitis B virus. Conditions: Hepatitis B virus, 144 h, 10 μM compound, 6 days at 37° C., vs DMSO control wells; Table 6; read-out: AD38 Viral Load (CpAM/DMSO %) at 10 μM. The method, then:
(§1) AD38 cells were then re-suspended with 10 mL of treatment medium and counted. Wells of a collagen coated 96-well NUNC microtiter plate were seeded at 50,000/well in 180 μL of treatment medium, and 20 μL of either 10% DMSO (Control) or a 10× solution of test compound in 10% DMSO in treatment media was added for a final compound concentration 1, 3, or 10 μM (1.0% final [DMSO]) and plates were incubated for 6 days at 37° C.
Subsequently viral load production was assayed by quantitative PCR of the core sequence. Briefly, 5 μL of clarified supernatant was added to a PCR reaction mixture that contained forward primers HBV-f 5′-CTGTGCCTTGGGTGGCTTT-3′, Reverse primers HBV-r 5′-[…]-3′ and Fluorescent TaqMan™ Probes HBV-probe 5′-FAM/AGCTCCAAA/ZEN/[…]/3IABkFQ-3′ in Quanta Biosciences PerfeCTa® qPCR Toughmix®, and was subsequently on an Applied Biosystems VIIA7 in a final volume of 20 μL. The PCR mixture was incubated at 45° C. for 5 minutes, then 95° C. for 10 min, followed by 40 cycles of 10 seconds at 95° C. and 20 seconds at 60° C. Viral load was quantitated against known standards by using ViiA™ 7 Software. Viral load in the supernatant from wells with treated cells were compared against viral load in supernatant from DMSO control wells (≥3 per plate).

Series [2] has as its system AD38 cells. The series can be described thus: AD38 viability normalized to DMSO control. It counts as cell-based. Conditions: 10 μM compound, vs DMSO control; Table 6. The procedure: as §1

Consider `COc1ccc(S(=O)(=O)N2CCN(c3nc(Nc4ccc(C)cc4)cc(-n4cncn4)n3)CC2)cc1` [Compound 1230], for which, in series [1], the activity at 10 µM is 0%. Moreover, the “AD38 Viability Normalized Result (CPAM/DMSO %) at 10 μM” value in series [2] is recorded as 95%.
For `COc1ccc(S(=O)(=O)N2CCN(c3nc(Nc4ccc(C)cc4)cc(NC(C)C)n3)CC2)cc1` [Compound 1231], the activity at 10 µM in series [1] came out at 45%. In addition, in series [2], the “AD38 Viability Normalized Result (CPAM/DMSO %) at 10 μM” value is 94%.
Regarding `COc1ccc(S(=O)(=O)N2CCN(c3nc(NCCO)cc(Nc4ccc(C)cc4)n3)CC2)cc1` [Compound 1232], in series [1], the activity at 10 µM came to 83%. The “AD38 Viability Normalized Result (CPAM/DMSO %) at 10 μM” value in series [2] stood at 96%.
The matching figures for `COc1ccc(S(=O)(=O)N2CCN(c3nc(C)cc(Nc4nccs4)n3)CC2)cc1` [Compound 1233]: 87% and 95%.
For the compound `COc1ccc(S(=O)(=O)N2CCN(c3nc(C)cc(Nc4cccnc4)n3)CC2)cc1` [Compound 1234], in series [1], the activity at 10 µM came out at 82%. Besides, the “AD38 Viability Normalized Result (CPAM/DMSO %) at 10 μM” value in series [2] worked out at 101%.
As to `Cc1ccc(Nc2cc(C)nc(N3CCN(S(=O)(=O)c4cn[nH]c4)CC3)n2)cc1` [Compound 1238], the activity at 10 µM in series [1] was determined as 26%. For the same compound, the “AD38 Viability Normalized Result (CPAM/DMSO %) at 10 μM” value in series [2] was found to be 102%.
With `COc1ccc(S(=O)(=O)N2CCN(c3nc(C)cc(Nc4ccncc4)n3)CC2)cc1` [Compound 1240], in series [1], the activity at 10 µM was determined as 46%. Also, the “AD38 Viability Normalized Result (CPAM/DMSO %) at 10 μM” value in series [2] is on record as 102%.
The matching figures for `COc1ccc(S(=O)(=O)N2CCN(c3nc(Nc4ccc(C)cc4)cc(N4CCSCC4)n3)CC2)cc1` [Compound 1241, 2-(4-((4-methoxyphenyl)sulfonyl)piperazin-1-yl)-6-thiomorpholino-N-(p-tolyl) pyrimidin-4-amine]: 65% and 98%.
On to `COc1ccc(S(=O)(=O)N2CCN(c3nc(Nc4ccc(C)cc4)cc(-c4nccs4)n3)CC2)cc1` [Compound 1242], for which the activity at 10 µM in series [1] was 30%. Besides, the “AD38 Viability Normalized Result (CPAM/DMSO %) at 10 μM” value in series [2] is listed as 103%.
With `CNc1cc(Nc2ccc(C)cc2)nc(N2CCN(S(=O)(=O)c3ccc(OC)cc3)CC2)n1` [Compound 1243], the activity at 10 µM in series [1] turned out to be 32%. For the same compound, in series [2], the “AD38 Viability Normalized Result (CPAM/DMSO %) at 10 μM” value is 109%.
In the case of `Cc1ccc(Nc2cc(C)nc(N3CCN(S(=O)(=O)c4ccc(N)nc4)CC3)n2)cc1` [Compound 1245], the activity at 10 µM in series [1] was found to be 70%. Besides, the “AD38 Viability Normalized Result (CPAM/DMSO %) at 10 μM” value in series [2] is 99%.
In the case of `COc1ccc(S(=O)(=O)N2CCN(c3nc(Nc4ccc(C)cc4)cc(-n4nccn4)n3)CC2)cc1` [Compound 1247], the activity at 10 µM in series [1] was 6%. Moreover, in series [2], the “AD38 Viability Normalized Result (CPAM/DMSO %) at 10 μM” value turned out to be 98%.
Turning to `COc1ccc(S(=O)(=O)N2CCN(c3nc(Nc4ccc(C)cc4)cc(N(C)C(C)C)n3)CC2)cc1` [Compound 1248], in series [1], the activity at 10 µM amounted to 8%. Also, the “AD38 Viability Normalized Result (CPAM/DMSO %) at 10 μM” value in series [2] was determined as 33%.
For `COc1ccc(S(=O)(=O)N2CCN(c3nc(Nc4ccc(C)cc4)cc(NC(C)(C)C)n3)CC2)cc1` [Compound 1249], the activity at 10 µM in series [1] was found to be 31%. For the same compound, the “AD38 Viability Normalized Result (CPAM/DMSO %) at 10 μM” value in series [2] came out at 65%.
Consider `COc1ccc(S(=O)(=O)N2CCN(c3nc(Nc4ccc(C)cc4)cc(-c4ccccn4)n3)CC2)cc1` [Compound 1250, 2-(4-((4-methoxyphenyl)sulfonyl)piperazin-1-yl)-6-(pyridin-2-yl)-N-(p-tolyl) pyrimidin-4-amine], for which the activity at 10 µM in series [1] stood at 56%. Besides, in series [2], the “AD38 Viability Normalized Result (CPAM/DMSO %) at 10 μM” value came to 101%.
On to `COc1ccc(S(=O)(=O)N2CCN(c3nc(NCCN(C)C)cc(Nc4ccc(C)cc4)n3)CC2)cc1` [Compound 1251], for which the activity at 10 µM in series [1] stood at 60%. Also, the “AD38 Viability Normalized Result (CPAM/DMSO %) at 10 μM” value in series [2] turned out to be 56%.
Consider `Cc1ccc(Nc2cc(C)nc(N3CCN(S(=O)(=O)c4ccncc4)CC3)n2)cc1` [Compound 1258], for which the activity at 10 µM in series [1] turned out to be 50%. The “AD38 Viability Normalized Result (CPAM/DMSO %) at 10 μM” value in series [2] turned out to be 105%.

The record behind these values is patent publication US10273228B2, “Hepatitis B viral assembly effectors” (Indiana University Research and Technology Corporation, priority 2015, dated 2019).
